Where a name gives a salt, the structure may show the parent alone. Read-outs that look alike come from different tables or passages of the source.
Tests used:
[1] = cited from earlier work
[2] = conversion of the g/L value

- solubility in water [2]: ~0.8%
Compound: NNc1nncc2ccccc12 [Hydralazine HCl]
- solubility in water [1]: approximately 8 g/L
